Measurements: PMC6572135, “N-Methyl-D-glucamine–Calix[4]resorcinarene Conjugates: Self-Assembly and Biological Properties” (Molecules, 2019)

Test: Conductometry, critical aggregation concentration
Type: physicochemical
Conditions: water solution, 25 °C; GCR-2 in the presence of two-fold excess of MG
Procedure: Firstly, self-assembly of GCR-1 was studied by conductometric measurements (Figure 1). Specific conductivity increases proportionately with the GCR-1 concentration in water solution. Inflection on the plot appears at 14 mM, and after this critical aggregation concentration (CAC) the increment rate of conductivity reduces because the aggregates transfer charge less efficiently than monomers. Remarkably, modification of calix[4]resorcinarene by N-methyl-D-glucamine fragment facilitates self-aggregation of macrocycle in water medium (Figure 1). The CAC value for calix[4]resorcinarene (CR-1) without meglumine units at the upper rim is 20 mM that is greater than that for meglumine-modified calix[4]resorcinarene. The driving forces of intermolecular aggregates’ formation are probably hydrogen bonds between hydroxyl groups on the GCR-1 upper rim, so the presence of additional OH-groups in the meglumine group reinforces this noncovalent interaction. A stable pH value, which can be observed over a wide range of concentrations, verifies that the N-methyl-D-glucamine fragment is an effective buffer component (Figure S4). […] As a result, the aggregation of this calix[4]resorcinarene was studied in water solutions at the presence of two-fold excess of N-methyl-D-glucamine (MG). […] Specific conductivity values were measured at least three times for each concentration. […]

Substance: Sulfonatoethylcalix[4]resorcinarene [CR-1, reference compound]
- CAC, conductometry: 20 mM
